Results taken from patent US9371274B2, “Compound having read-through activity” (The University of Tokyo, priority 2011, dated 2016).
Entries after “also recorded” stand apart in the source; their conditions may differ.

Columns and labels:
[1] = prior knowledge; cited from earlier work
[2] = system: reporter gene with premature stop codon (TGA) in COS-7 cells; experiment: In vitro read-through activity, COS-7 cells transfected with β-galactosidase/luciferase reporter gene; assay type: cell-based, African green monkey; settings: for Read-through Activity: same method as Example 16, luciferase activity divided by β-galactosidase activity, 48 hours incubation, concentration for these values not given; for read-through activity / read-through efficiency (FIG. 1-3, in words): COS-7, TGA reporter, compared with negamycin
Procedure: African green monkey SV40-transformed kidney fibroblast cell line (COS-7) was sown in 100×20 mm cell culture dishes manufactured by Falcon and cultured at 37° C. in 5% CO2. Fifty milliliters of fetal bovine serum (FBS) was added to 500 mL of D-MEM (containing high glucose, L-glutamine, and phenol red) manufactured by Wako Pure Chemical Industries Ltd., and culture broth prepared to adjust to 10% FBS was used as the culture broth. (Referred to hereinafter as culture broth.)
The Reporter Lysis Buffer 5×, assay 2× buffer, 1 M Na2CO3, and standard used in creation of the calibration curve referred to hereinafter are included in the β-Galactosidase Enzyme Assay System with Reporter Lysis Buffer manufactured by Promega.
COS-7 cells (8.0×10^3 cells/well) were seeded by continuous dispensing of 100 μL each into flat-bottom 96-well plates (Costar (registered trade mark) 3596) manufactured by Corning and incubated for 15-16 hours at 37° C.
A quantity of 4 μL/well of DNA solution prepared in a ratio of 1.32 μL (2 μg) of reporter gene (a construct obtained by linking a β-galactosidase gene and a luciferase gene and inserting a premature stop codon (TGA) at their juncture), 100 μL of OPTI-MEM (registered trade mark) I (Reduced Serum Medium 1×) manufactured by Invitrogen, and 4 μL of FuGENE (registered trade mark) HD Transfection Reagent manufactured by Roche was added to the solution and incubated for 10-11 hours at 37° C.
The entire culture broth was aspirated, and the compound to be evaluated was prepared to adjust to 200 μM by culture broth and added by continuously dispensing 200 μL/well. 100 μM and 50 μM were also prepared in the same way and added by continuously dispensing 200 μL each. Incubation was carried out for 48 hours at 37° C. after addition.
After 48 hours had elapsed, the entire culture broth in the well was aspirated and washed twice with PBS. The Reporter Lysis Buffer 5× was then diluted by MilliQ, and a solution prepared to adjust to Reporter Lysis Buffer l× was added by continuously dispensing 100 μL each and allowed to stand for 15 minutes at room temperature. The contents of each well were recovered thereafter, and the entire amount was transferred to Nunc microwell plates (V bottom) manufactured by Thermo Fisher Scientific and centrifuged (1800 rpm, 15 minutes). Eighty-five microliters of this lysate was transferred to Nunc low-binding 96-well plates (flat bottom) clear manufactured by Thermo Fisher Scientific.
Using Nunc low-binding 96-well plates (flat bottom) clear manufactured by Thermo Fisher Scientific, 30 μL/well of Reporter Lysis Buffer l× was added by dispensing continuously, followed by addition of 20 μL of the recovered lysate to make 50 μL. Separately, the standard required for creation of a calibration curve was added to make 0, 1, 2, 3, 4, and 5 mU according to the protocol of the β-Galactosidase Enzyme Assay System with Reporter Lysis Buffer manufactured by Promega. A quantity of 50 μL of Assay 2× buffer was added to each of these wells and incubated for 25 minutes at room temperature. A quantity of 150 μL/well of 1M Na2CO3, a reaction-stopping solution, was added, and the […] (420 nm, reference […]) was measured immediately using an absorption/fluorescence microplate reader Tecan Safire manufactured by Tecan. A calibration curve was created from the absorbance of the standard, and the absorbance converted to mU according to this calibration curve was taken as the activity value.
A quantity of 50 μL/well of the recovered lysate was added to 96-well white plates (Costar (registered trade mark) 3912) manufactured by Corning and incubated for five minutes at room temperature after adding 100 μL of PicaGene (registered trade mark) manufactured by Toyo Ink Co., Ltd. After five minutes, the emission intensity was measured by a Berthold luminometer MicroLumat Plus LB96V manufactured by Berthold Japan. […]

[3] = system: transgenic mice with luciferase gene and β-galactosidase gene as reporter genes; experiment: In vivo read-through activity in reporter transgenic mice (rectus femoris and gastrosoleus muscle); settings: subcutaneous, every 24 hours for seven consecutive days; muscle excised on the eighth day
Procedure: Transgenic mice were produced by introducing a luciferase gene and […] gene as reporter genes by the method described in International Publication WO2008/004610 pamphlet.
A physiological saline solution of example compound 2 synthesized in Example 1 was administered subcutaneously to the abdomen of the transgenic mice produced every 24 hours for seven consecutive days. On the eighth day, the rectus femoris and the gastrosoleus muscle of the mice were excised. After mincing by ophthalmological scissors, three times the wet weight of Reporter Lysis Buffer (Promega, US) was added, and the tissue was disrupted by Physcotron (Niti-on Co., Ltd.). After freezing overnight and thawing, the supernatant obtained by centrifugation was introduced into a 96-well plate, and the β-galactosidase activity was measured by a Beta-Glo Assay System (Promega, US) and the luciferase activity was measured by a Bright-Glo Assay System (Promega, US). A luminometer (ATTO) was used in measurement. The luciferase activity value was divided by the […] activity value, and the value multiplied by 10^4 was taken as the read-through efficiency.

premature stop codon = experiment: Read-through activity stated in the description, test not specified; settings: statement of the inventors' finding, no test named

Structure (SMILES) | Read-through Activity [2] | also measured
CN(CC(=O)O)NC(=O)CC(N)CCCN (stereo not drawn) [3-Epi-5-dehydroxynegamycin] | – | antimicrobial activity (in words) [1]: weak antimicrobial activity
CN(CC(=O)OCc1ccccc1Br)NC(=O)C[C@@H](N)CCN [compound 20] | 7.07 ± 0.45 | –
CN(CC(=O)OCc1ccc(Br)cc1)NC(=O)C[C@@H](N)CCN [compound 22] | 5.18 ± 0.04 | –
CN(CC(=O)O)NC(=O)C[C@@H](N)CCCN [Example Compound 2, (S)-2-(2-(3,6-diaminohexanoyl)-1-methylhydrazinyl)acetic acid] | – | read-through activity / read-through efficiency (FIG. 1-3, in words) [2]: remarkably high read-through efficiency in comparison even to negamycin; read-through activity in vivo (FIG. 4, in words) [3]: high read-through activity even in comparison to gentamicin and 5-epi-negamycin
CC(C)[C@H](N)C(=O)N[C@@H](CCN)CC(=O)NN(C)CC(=O)O [compound 35] | 3.09 ± 0.62 | –
CN(CC(=O)O)NC(=O)C[C@H](CCN)NC(=O)[C@@H](N)CCN [compound 40] | 1.50 ± 0.05 | –
CC(C)C[C@@H](N)C(=O)N[C@@H](CCCN)CC(=O)NN(C)CC(=O)O [compound 18] | 1.30 ± 0.09 | –
CCCCCNCC[C@H](N)CC(=O)NN(C)CC(=O)O [compound 27] | 1.64 ± 0.12 | –
CC(C)C[C@H](N)C(=O)N[C@@H](CCCN)CC(=O)NN(C)CC(=O)O [Example Compound 7, 2-(2-((S)-6-amino-3-((S)-2-amino-4-methylpentanamide)hexanoyl)-1-methylhydrazinyl)acetic acid] | – | read-through activity / read-through efficiency (FIG. 1-3, in words) [2]: remarkably high read-through efficiency in comparison even to negamycin
CC(C)C[C@H](N)C(=O)N[C@@H](CC(=O)CN)CC(=O)NN(C)CC(=O)O [3-N-leucyl-3-epi-5-dehydronegamycin] | – | read-through activity (in words) (premature stop codon): potent read-through activity; antimicrobial activity (in words) [1]: no antimicrobial activity
CC(C)C[C@@H](N)C(=O)N[C@@H](CCCN)CC(=O)NN(C)CC(=O)O [compound 23] | 5.65 ± 0.09 | –
CN(CC(=O)O)NC(=O)C[C@H](CCN)NC(=O)[C@@H](N)CCCCN [compound 42] | 2.14 ± 0.18 | –
CN(CC(=O)O)NC(=O)C[C@@H](N)CCNCc1ccccc1 [compound 33] | 2.34 ± 0.11 | –
CCOC(=O)N(CC(=O)O)NC(=O)C[C@@H](N)CCCN [compound 15] | 1.92 ± 0.21 | –
CN(CC(=O)O)NC(=O)C[C@H](CCN)NC(=O)[C@@H](N)CCCN [compound 46] | 1.60 ± 0.13 | –
CN(CC(=O)O)NC(=O)C[C@H](N)C[C@@H](O)CN [negamycin, methylhydrazinoacetic acid-linked δ-hydroxy-β-lysine, reference compound] | 1.53±0.04 | antimicrobial activity (in words) [1]: high antimicrobial activity
CN(CC(=O)O)NC(=O)C[C@@H](N)CCNC(=O)CN [compound 29] | 2.84 ± 0.06 | –
CN(CC(=O)O)NC(=O)C[C@H](CCCN)NC(=O)CN [compound 17] | 2.10 ± 0.90 | –
CN(CC(=O)O)NC(=O)C[C@H](CCN)NC(=O)CN [compound 37] | 2.78 ± 0.67 | –

Structure (SMILES) | Read-through Activity [2] | also measured
C[C@H](N)C(=O)N[C@@H](CCN)CC(=O)NN(C)CC(=O)O [compound 41] | 1.57 ± 0.05 | –
CN(CC(=O)O)NC(=O)C[C@H](CCN)NC(=O)[C@@H](N)CCN [compound 45] | 1.65 ± 0.18 | –
CN(CC(=O)OCc1ccccc1)NC(=O)C[C@@H](N)CCN [compound 24] | 3.89 ± 0.16 | –
C[C@H](N)C(=O)N[C@@H](CCN)CC(=O)NN(C)CC(=O)O [compound 36] | 1.92 ± 0.40 | –
CCCNCC[C@H](N)CC(=O)NN(C)CC(=O)O [compound 26] | 1.44 ± 0.04 | –
CN(CC(=O)O)NC(=O)C[C@@H](N)CCNCc1ccccc1 [compound 28] | 1.40 ± 0.04 | –
CN(CC(=O)O)NC(=O)C[C@@H](N)CCNS(C)(=O)=O [compound 32] | 1.24 ± 0.09 | –
CN(CC(=O)O)NC(=O)CC(N)CC(O)CN (stereo not drawn) [5-epi-negamycin] | – | read-through activity (in words) (premature stop codon): has read-through activity
CN(CC(=O)O)NC(=O)C[C@H](CCN)NC(=O)[C@@H](N)Cc1ccc(O)cc1 [compound 39] | 1.63 ± 0.14 | –
CN(CC(=O)O)NC(=O)C[C@H](CCCN)NC(=O)[C@@H](N)Cc1ccccc1 [compound 19] | 3.25 ± 0.07 | –
CCOC(=O)CN(C)NC(=O)C[C@@H](N)CCCN [Example Compound 5, (S)-ethyl 2-(2-(3,6-diaminohexanoyl)-1-methylhydrazinyl)acetate] | – | read-through activity / read-through efficiency (FIG. 1-3, in words) [2]: remarkably high read-through efficiency in comparison even to negamycin
CN(CC(=O)O)NC(=O)C[C@@H](N)CCNC(=O)CN [compound 34] | 2.00 ± 0.13 | –
CN(CC(=O)O)NC(=O)C[C@H](CCN)NC(=O)[C@@H](N)CC(=O)O [compound 44] | 1.58 ± 0.05 | –
CC[C@H](C)[C@H](N)C(=O)N[C@@H](CCN)CC(=O)NN(C)CC(=O)O [compound 38] | 1.75 ± 0.19 | –
CC(C)[C@H](N)C(=O)N[C@@H](CCCN)CC(=O)NN(C)CC(=O)O [compound 16] | 1.87 ± 0.29 | –
CN(CC(=O)O)NC(=O)C[C@H](CCCN)NC(=O)[C@@H](N)Cc1ccccc1 [compound 14] | 2.13 ± 0.08 | –
CC[C@H](C)[C@H](N)C(=O)N[C@@H](CCN)CC(=O)NN(C)CC(=O)O [compound 43] | 2.20 ± 0.05 | –
CN(CC(=O)O)NC(=O)C[C@@H](N)CCN [Example Compound 3, (S)-2-(2-(3,5-diaminopentanoyl)-1-methylhydrazinyl)acetic acid] | – | read-through activity / read-through efficiency (FIG. 1-3, in words) [2]: remarkably high read-through efficiency in comparison even to negamycin; also recorded: read-through efficiency equal to or greater than that of negamycin
CN(CC(=O)OCc1ccccc1Br)NC(=O)C[C@@H](N)CCN [compound 25] | 1.26 ± 0.07 | –
